Experiments:
Rattus norvegicus [1] = assay: Percent reduction of SHR (Spontaneous Hypertensive Rat) blood pressure at 1 hr at a dose 10 mg/kg peroral administration; format: functional; details: route oral
[2] = target: T1, Adrenergic receptor alpha-2 (Rattus norvegicus, UniProt P22086+P19328+P22909); assay: Binding affinity to alpha-2 adrenergic receptor by displacement of [3H]clonidine; format: protein assay
T1 sequence (P22086 whole entry): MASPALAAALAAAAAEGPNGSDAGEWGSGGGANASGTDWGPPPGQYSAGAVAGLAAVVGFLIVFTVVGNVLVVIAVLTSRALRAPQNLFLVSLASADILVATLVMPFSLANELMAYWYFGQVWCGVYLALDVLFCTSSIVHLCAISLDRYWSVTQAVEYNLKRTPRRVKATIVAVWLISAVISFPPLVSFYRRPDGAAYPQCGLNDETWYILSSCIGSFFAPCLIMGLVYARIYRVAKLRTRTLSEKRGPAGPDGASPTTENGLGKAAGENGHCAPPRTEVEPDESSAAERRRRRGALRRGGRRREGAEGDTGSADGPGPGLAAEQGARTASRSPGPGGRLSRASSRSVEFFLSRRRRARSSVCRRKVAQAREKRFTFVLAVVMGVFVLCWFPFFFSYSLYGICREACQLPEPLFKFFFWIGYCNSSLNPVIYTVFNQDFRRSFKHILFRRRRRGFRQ
T1 sequence (P19328 whole entry): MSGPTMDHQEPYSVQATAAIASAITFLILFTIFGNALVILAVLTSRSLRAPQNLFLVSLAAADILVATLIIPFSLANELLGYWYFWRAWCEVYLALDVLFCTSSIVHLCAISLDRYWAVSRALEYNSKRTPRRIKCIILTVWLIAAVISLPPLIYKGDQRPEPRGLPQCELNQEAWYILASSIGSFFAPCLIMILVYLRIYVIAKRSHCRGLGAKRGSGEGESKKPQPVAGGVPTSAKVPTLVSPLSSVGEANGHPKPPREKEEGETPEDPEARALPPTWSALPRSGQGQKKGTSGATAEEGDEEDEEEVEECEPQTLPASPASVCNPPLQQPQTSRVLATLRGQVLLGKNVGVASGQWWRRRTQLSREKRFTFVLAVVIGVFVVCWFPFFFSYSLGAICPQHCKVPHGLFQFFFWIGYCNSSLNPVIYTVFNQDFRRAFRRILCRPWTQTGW
T1 sequence (P22909 whole entry): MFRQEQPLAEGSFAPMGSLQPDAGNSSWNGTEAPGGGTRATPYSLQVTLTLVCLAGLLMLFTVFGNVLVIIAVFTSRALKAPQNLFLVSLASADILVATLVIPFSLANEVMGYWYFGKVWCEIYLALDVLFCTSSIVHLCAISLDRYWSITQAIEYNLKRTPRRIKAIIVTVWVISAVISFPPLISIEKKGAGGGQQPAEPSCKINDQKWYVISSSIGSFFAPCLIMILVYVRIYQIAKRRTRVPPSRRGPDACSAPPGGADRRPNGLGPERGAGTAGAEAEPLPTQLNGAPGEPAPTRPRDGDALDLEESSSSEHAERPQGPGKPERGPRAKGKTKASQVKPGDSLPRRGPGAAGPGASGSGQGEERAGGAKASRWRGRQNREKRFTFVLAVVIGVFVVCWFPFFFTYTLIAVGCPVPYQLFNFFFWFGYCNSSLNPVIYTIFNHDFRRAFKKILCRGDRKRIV

Rattus norvegicus [3] = assay: Percent reduction of SHR (Spontaneous Hypertensive Rat) blood pressure at 4.5 hr at a dose 10 mg/kg peroral administration; format: functional; details: route oral
[4] = target: T2, Adrenergic receptor alpha-1 (Rattus norvegicus, UniProt P15823+P23944+P43140); assay: Binding affinity to Alpha-1 adrenergic receptor by displacement of [3H]prazosin; format: protein assay
T2 sequence (P15823 whole entry): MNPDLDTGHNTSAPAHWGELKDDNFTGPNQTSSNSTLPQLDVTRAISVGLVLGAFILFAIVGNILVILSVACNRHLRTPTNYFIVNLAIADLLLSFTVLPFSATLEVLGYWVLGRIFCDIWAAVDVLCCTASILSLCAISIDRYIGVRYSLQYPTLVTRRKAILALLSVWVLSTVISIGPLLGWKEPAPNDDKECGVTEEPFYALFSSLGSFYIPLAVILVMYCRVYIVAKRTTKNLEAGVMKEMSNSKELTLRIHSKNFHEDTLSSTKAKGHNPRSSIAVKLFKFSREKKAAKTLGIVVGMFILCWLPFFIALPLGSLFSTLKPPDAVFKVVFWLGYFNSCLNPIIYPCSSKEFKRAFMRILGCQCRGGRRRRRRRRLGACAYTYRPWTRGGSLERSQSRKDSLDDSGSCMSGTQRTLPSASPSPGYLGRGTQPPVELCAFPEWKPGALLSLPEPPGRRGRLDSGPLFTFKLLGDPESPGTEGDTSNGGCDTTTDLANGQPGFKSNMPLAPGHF
T2 sequence (P23944 whole entry): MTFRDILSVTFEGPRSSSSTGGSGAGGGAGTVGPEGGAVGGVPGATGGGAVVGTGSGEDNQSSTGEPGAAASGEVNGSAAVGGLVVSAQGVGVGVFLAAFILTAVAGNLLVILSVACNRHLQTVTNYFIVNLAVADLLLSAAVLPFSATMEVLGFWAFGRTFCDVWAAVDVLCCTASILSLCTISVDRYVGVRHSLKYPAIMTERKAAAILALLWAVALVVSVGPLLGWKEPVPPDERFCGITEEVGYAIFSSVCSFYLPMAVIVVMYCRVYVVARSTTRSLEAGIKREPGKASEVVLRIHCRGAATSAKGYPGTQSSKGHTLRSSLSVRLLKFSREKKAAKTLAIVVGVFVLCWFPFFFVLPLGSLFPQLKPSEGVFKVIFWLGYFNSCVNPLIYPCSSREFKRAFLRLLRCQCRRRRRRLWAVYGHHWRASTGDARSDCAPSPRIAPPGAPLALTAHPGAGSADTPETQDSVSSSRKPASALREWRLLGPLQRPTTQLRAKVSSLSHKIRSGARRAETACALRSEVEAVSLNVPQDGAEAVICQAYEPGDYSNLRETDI
T2 sequence (P43140 whole entry): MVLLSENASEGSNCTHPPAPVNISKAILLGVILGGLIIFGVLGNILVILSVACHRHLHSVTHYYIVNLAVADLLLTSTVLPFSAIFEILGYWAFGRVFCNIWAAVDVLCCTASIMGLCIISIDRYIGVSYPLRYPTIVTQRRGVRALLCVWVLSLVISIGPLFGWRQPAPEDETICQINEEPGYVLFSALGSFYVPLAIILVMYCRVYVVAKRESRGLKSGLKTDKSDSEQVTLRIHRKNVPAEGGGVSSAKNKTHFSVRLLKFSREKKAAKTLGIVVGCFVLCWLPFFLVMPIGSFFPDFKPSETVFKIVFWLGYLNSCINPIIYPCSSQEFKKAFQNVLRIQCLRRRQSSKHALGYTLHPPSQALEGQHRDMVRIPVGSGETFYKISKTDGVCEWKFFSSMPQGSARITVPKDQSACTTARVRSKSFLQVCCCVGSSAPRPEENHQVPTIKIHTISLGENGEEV

Rattus norvegicus [5] = assay: Percent reduction of SHR (Spontaneous Hypertensive Rat) blood pressure at 1 hr at a dose 3 mg/kg peroral administration; details: route oral
Rattus norvegicus [6] = assay: Percent reduction of SHR (Spontaneous Hypertensive Rat) blood pressure at 4.5 hr at a dose 3 mg/kg peroral administration; details: route oral
[7] = Ionization constant of the compound
Rattus norvegicus [8] = assay: Percent reduction of SHR (Spontaneous Hypertensive Rat) blood pressure at 4.5 hr at a dose 3 mg/kg peroral administration; format: functional; details: route oral
Rattus norvegicus [9] = assay: Percent reduction of SHR (Spontaneous Hypertensive Rat) blood pressure at 1 hr at a dose 3 mg/kg peroral administration; format: functional; details: route oral

Ki [2]	Ki [4]	pKa [7]	Ki ([4]; read-out: Ki)	Compound	Reduction (Rattus norvegicus [1])	Reduction (Rattus norvegicus [3])	Reduction (Rattus norvegicus [5])	Reduction (Rattus norvegicus [6])	Reduction (Rattus norvegicus [8])	Reduction (Rattus norvegicus [9])
>> 1 uM	>> 1 uM			COc1cc2cc(N3CCCCC3)nc(N)c2cc1OC	15%	11%				
> 1000 nM		9.3	11.4 nM	COc1cc2nc(N(C)C)cc(N)c2cc1OC			12%	11%		
>> 1 uM	>> 1 uM	7.1		COc1cc2cc(N(C)C)nc(N)c2cc1OC	12%	10%				
> 1000 nM		8.1	4.1 nM	COc1cc2nc(N(C)C)nc(N)c2cc1OC						
			160 nM	COc1cc2cc(N3CCN(C(=O)c4ccco4)CC3)nc(N)c2cc1OC	4%	6%				
		6.8		COc1cc2nc(N3CCN(C(=O)c4ccco4)CC3)nc(N)c2cc1OC [PRAZOSIN]					15%	24%

Reference: ChEMBL document CHEMBL1124269, “1,3-Diamino-6,7-dimethoxyisoquinoline derivatives as potential alpha 1-adrenoceptor antagonists” (J Med Chem, 1988)
